Test: AML dose-escalation study: pharmacokinetics (plasma, urine)
Assay type: in vivo, human
Experimental: The schedules for collection of blood and urine samples for PK analyses in each cohort in both studies are described in Supplementary Table 1. When necessary for clinical response assessment in the AML study, a bone marrow sample for PK analysis was collected at Cycle 1, Day 28.
The concentration of AZD1208 in plasma and urine was determined by Covance, on behalf of Clinical Bioanalysis Alliance at AstraZeneca R&D, using a bioanalytical method. A volume of 0.05 ml of K2EDTA human plasma sample was extracted by liquid–liquid extraction using 0.7 ml of methyl tert-butyl ether. Approximately 100 µl of the supernatant was transferred, evaporated to dryness and reconstituted with 350 µl of 1:1 methanol:water, and a 5 µl injection was made to the high-performance liquid chromatography (HPLC) column. HPLC separations were performed on a Phenomenex LUNA C18 (50 × 2 mm, 5 µm) column using a mobile phase of 0.1% formic acid in water (A) and 0.1% formic acid in acetonitrile (B) at a flow rate of 0.6 ml/min and a column temperature of 40 °C. AZD1208-D5 was used as the internal standard. Detection was performed in a Sciex API4000 mass spectrometer, in a positive electrospray ionisation mode, using multiple reaction monitoring detection (AZD1208: 380.0–>248.1; AZD1208-D5: 385.0–>253.1).

## N[C@@H]1CCCN(c2c(/C=C3\SC(=O)NC3=O)cccc2-c2ccccc2)C1 [AZD1208]
240 mg
  Percentage of patients with a lower accumulation ratio: 0%
900 mg
  Percentage of patients with a lower accumulation ratio: 67%
120–900 mg doses, 4/16 patients
  Patients with significantly lower exposure at steady state compared with the first dose: 25%
Cycle 1, Day 1
  Dose proportionality of Cmax and AUC0–24: dose proportional
Cycle 1, Day 1, 120 mg, n=3
  Tmax, median: 2.42 h
Cycle 1, Day 1, 240 mg, n=6
  Tmax, median: 2.20 h
Cycle 1, Day 1, 480 mg, n=6
  Tmax, median: 3.17 h
Cycle 1, Day 1, 700 mg, n=7
  Tmax, median: 3.05 h
Cycle 1, Day 1, 900 mg, n=9
  Tmax, median: 3.20 h
Cycle 1, Day 1, 0.5 h post-dose, 120 mg, n=3
  Gmean plasma concentration of AZD1208 (± SD): 85.8 (40.1, 183.9) ng ml
Cycle 1, Day 1, 0.5 h post-dose, 240 mg, n=6
  Gmean plasma concentration of AZD1208 (± SD): 158.3 (14.4, 1740.3) ng ml
Cycle 1, Day 1, 0.5 h post-dose, 480 mg, n=6
  Gmean plasma concentration of AZD1208 (± SD): 124.3 (67.6, 228.6) ng ml
Cycle 1, Day 1, 0.5 h post-dose, 700 mg, n=7
  Gmean plasma concentration of AZD1208 (± SD): 386.8 (93.3, 1603.6) ng ml
Cycle 1, Day 1, 0.5 h post-dose, 900 mg, n=9
  Gmean plasma concentration of AZD1208 (± SD): 251.5 (90.7, 697.2) ng ml
Cycle 1, Day 1, 1 h post-dose, 120 mg, n=3
  Gmean plasma concentration of AZD1208 (± SD): 321.3 (187.8, 549.9) ng ml
Cycle 1, Day 1, 1 h post-dose, 240 mg, n=6
  Gmean plasma concentration of AZD1208 (± SD): 540.4 (133.8, 2182.4) ng ml
Cycle 1, Day 1, 1 h post-dose, 480 mg, n=6
  Gmean plasma concentration of AZD1208 (± SD): 573.0 (248.3, 1322.0) ng ml
Cycle 1, Day 1, 1 h post-dose, 700 mg, n=7
  Gmean plasma concentration of AZD1208 (± SD): 883.8 (351.6, 2221.7) ng ml
Cycle 1, Day 1, 1 h post-dose, 900 mg, n=9
  Gmean plasma concentration of AZD1208 (± SD): 921.4 (373.1, 2275.6) ng ml
Cycle 1, Day 1, 1.5 h post-dose, 120 mg, n=3
  Gmean plasma concentration of AZD1208 (± SD): 774.5 (422.1, 1421.3) ng ml
Cycle 1, Day 1, 1.5 h post-dose, 240 mg, n=6
  Gmean plasma concentration of AZD1208 (± SD): 1098.6 (620.9, 1943.7) ng ml
Cycle 1, Day 1, 1.5 h post-dose, 480 mg, n=6
  Gmean plasma concentration of AZD1208 (± SD): 1243.2 (485.9, 3181.1) ng ml
Cycle 1, Day 1, 1.5 h post-dose, 700 mg, n=7
  Gmean plasma concentration of AZD1208 (± SD): 1849.6 (783.5, 4366.4) ng ml
Cycle 1, Day 1, 1.5 h post-dose, 900 mg, n=9
  Gmean plasma concentration of AZD1208 (± SD): 2106.0 (860.5, 5154.2) ng ml
Cycle 1, Day 1, 2 h post-dose, 120 mg, n=3
  Gmean plasma concentration of AZD1208 (± SD): 779.9 (508.9, 1195.3) ng ml
Cycle 1, Day 1, 2 h post-dose, 240 mg, n=6
  Gmean plasma concentration of AZD1208 (± SD): 1388.6 (1074.3, 1744.9) ng ml
Cycle 1, Day 1, 2 h post-dose, 480 mg, n=6
  Gmean plasma concentration of AZD1208 (± SD): 1852.3 (781.9, 4387.6) ng ml
Cycle 1, Day 1, 2 h post-dose, 700 mg, n=7
  Gmean plasma concentration of AZD1208 (± SD): 2640.6 (1438.6, 4847.0) ng ml
Cycle 1, Day 1, 2 h post-dose, 900 mg, n=9
  Gmean plasma concentration of AZD1208 (± SD): 3553.2 (2352.6, 5366.6) ng ml
Cycle 1, Day 1, 3 h post-dose, 120 mg, n=3
  Gmean plasma concentration of AZD1208 (± SD): 715.6 (415.5, 1232.6) ng ml
Cycle 1, Day 1, 3 h post-dose, 240 mg, n=6
  Gmean plasma concentration of AZD1208 (± SD): 1299.5 (967.1, 1746.2) ng ml
Cycle 1, Day 1, 3 h post-dose, 480 mg, n=6
  Gmean plasma concentration of AZD1208 (± SD): 2865.4 (1884.8, 4356.2) ng ml
Cycle 1, Day 1, 3 h post-dose, 700 mg, n=7
  Gmean plasma concentration of AZD1208 (± SD): 3112.3 (1814.6, 5337.9) ng ml
Cycle 1, Day 1, 3 h post-dose, 900 mg, n=9
  Gmean plasma concentration of AZD1208 (± SD): 3574.9 (1521.4, 8400.4) ng ml
Cycle 1, Day 1, 6 h post-dose, 120 mg, n=3
  Gmean plasma concentration of AZD1208 (± SD): 546.6 (356.7, 837.6) ng ml
Cycle 1, Day 1, 6 h post-dose, 240 mg, n=6
  Gmean plasma concentration of AZD1208 (± SD): 1004.2 (822.5, 1226.0) ng ml
Cycle 1, Day 1, 6 h post-dose, 480 mg, n=6
  Gmean plasma concentration of AZD1208 (± SD): 2642.0 (1774.2, 3934.4) ng ml
Cycle 1, Day 1, 6 h post-dose, 700 mg, n=7
  Gmean plasma concentration of AZD1208 (± SD): 2846.5 (2115.2, 3830.6) ng ml
Cycle 1, Day 1, 6 h post-dose, 900 mg, n=9
  Gmean plasma concentration of AZD1208 (± SD): 4252.0 (2883.8, 6269.4) ng ml
Cycle 1, Day 1, 8 h post-dose, 120 mg, n=3
  Gmean plasma concentration of AZD1208 (± SD): 481.6 (308.4, 752.3) ng ml
Cycle 1, Day 1, 8 h post-dose, 240 mg, n=6
  Gmean plasma concentration of AZD1208 (± SD): 950.3 (825.3, 1094.2) ng ml
Cycle 1, Day 1, 8 h post-dose, 480 mg, n=6
  Gmean plasma concentration of AZD1208 (± SD): 2249.0 (1520.2, 3327.1) ng ml
Cycle 1, Day 1, 8 h post-dose, 700 mg, n=7
  Gmean plasma concentration of AZD1208 (± SD): 3284.7 (2253.3, 4788.2) ng ml
Cycle 1, Day 1, 8 h post-dose, 900 mg, n=9
  Gmean plasma concentration of AZD1208 (± SD): 3882.9 (2438.1, 6184.0) ng ml
Cycle 1, Day 1, 24 h post-dose, 120 mg, n=3
  Gmean plasma concentration of AZD1208 (± SD): 199.0 (75.6, 524.0) ng ml
Cycle 1, Day 1, 24 h post-dose, 240 mg, n=6
  Gmean plasma concentration of AZD1208 (± SD): 844.5 (598.4, 1191.8) ng ml
Cycle 1, Day 1, 24 h post-dose, 480 mg, n=6
  Gmean plasma concentration of AZD1208 (± SD): 2169.6 (1161.6, 4052.3) ng ml
Cycle 1, Day 1, 24 h post-dose, 900 mg, n=9
  Gmean plasma concentration of AZD1208 (± SD): 3045.2 (1664.2, 5572.3) ng ml
Cycle 1, Day 1, pre-dose, 240 mg, n=6
  Gmean plasma concentration of AZD1208 (± SD): 76.9 (NC) ng ml
Cycle 1, Day 14, 0.5 h post-dose, 120 mg, n=3
  Gmean plasma concentration of AZD1208 (± SD): 1758.9 (970.3, 3188.5) ng ml
Cycle 1, Day 14, 0.5 h post-dose, 240 mg, n=6
  Gmean plasma concentration of AZD1208 (± SD): 2365.9 (976.3, 6694.0) ng ml
Cycle 1, Day 14, 0.5 h post-dose, 480 mg, n=6
  Gmean plasma concentration of AZD1208 (± SD): 2887.4 (322.6, 25 841.7) ng ml
Cycle 1, Day 14, 0.5 h post-dose, 700 mg, n=7
  Gmean plasma concentration of AZD1208 (± SD): 2029.2 (863.1, 4770.5) ng ml
